In ChEMBL document CHEMBL1138636, “Potent inhibitors of the HIV-1 protease incorporating cyclic urea P1-P2 scaffold” (Bioorg Med Chem Lett, 2004):

Target: Human immunodeficiency virus type 1 protease (Human immunodeficiency virus 1, UniProt Q72874)
Experiment: Potency to inhibit HIV-1 protease

| SMILES | Ki |
| --- | --- |
| O=C(NC1c2ccccc2C[C@H]1O)[C@H](Cc1ccccc1)C[C@H](O)CN1C(=O)N(Cc2cccc(F)c2)CC1Cc1ccccc1 (stereo not given in full) | 3.2 nM |
| Cc1cc(CN2CC(Cc3ccccc3)N(C[C@@H](O)C[C@@H](Cc3ccccc3)C(=O)NC3c4ccccc4C[C@H]3O)C2=O)cc(C)c1C (stereo not given in full) | 100 nM |
| O=C(NC1c2ccccc2C[C@H]1O)[C@H](Cc1ccccc1)C[C@H](O)CN1C(=O)N(Cc2ccccc2)CC1Cc1ccccc1 (stereo not given in full) | 1.2 nM |
| COc1ccc(CN2CC(Cc3ccccc3)N(C[C@@H](O)C[C@@H](Cc3ccccc3)C(=O)NC3c4ccccc4C[C@H]3O)C2=O)cc1 (stereo not given in full) | 5.6 nM |
| O=C(NC1c2ccccc2C[C@H]1O)[C@H](Cc1ccccc1)C[C@H](O)CN1C(=O)N(Cc2cccnc2)CC1Cc1ccccc1 (stereo not given in full) | 18 nM |
| O=C(NC1c2ccccc2C[C@H]1O)[C@H](Cc1ccccc1)C[C@H](O)CN1C(=O)[C@@H](Cc2ccccc2)CC1Cc1ccccc1 (stereo not given in full) | 0.06 nM |
| C[C@]1(Cc2ccccc2)C[C@H](Cc2ccccc2)N(C[C@@H](O)C[C@@H](Cc2ccccc2)C(=O)N[C@H]2c3ccccc3C[C@H]2O)C1=O | 170 nM |
| CS(=O)(=O)c1ccc(CN2CC(Cc3ccccc3)N(C[C@@H](O)C[C@@H](Cc3ccccc3)C(=O)NC3c4ccccc4C[C@H]3O)C2=O)cc1 (stereo not given in full) | 300 nM |
| O=C(NC1c2ccccc2C[C@H]1O)[C@H](Cc1ccccc1)C[C@H](O)CN1C(=O)N(Cc2ccccn2)CC1Cc1ccccc1 (stereo not given in full) | 41 nM |
| O=C(NC1c2ccccc2C[C@H]1O)[C@H](Cc1ccccc1)C[C@H](O)CN1C(=O)N(Cc2ccncc2)CC1Cc1ccccc1 (stereo not given in full) | 190 nM |
